Experiment [1] deals with Serum osteocalcin. The experiment in a line: Serum osteocalcin suppression, 28-day repeat dose mouse model. It is filed as in vivo, mice. As to conditions: Mus musculus, 672 h; mice, oral gavage 28 days, serum osteocalcin.
The test system of experiment [2] is IL-6. The experiment in a line: Ex vivo LPS-stimulated human whole blood, IL-6 production. It is filed as cell-based. The note with it: mean. The procedure:
(§1) Venous blood from human donors was collected as 10 ml aliquots in tubes containing sodium heparin (BD Vacutainer from Becton Dickinson and Company, Franklin Lakes, N.Y.). Blood was added to sterile polystyrene round bottom 96-well tissue culture plates (Corning Costar) at 100 μl/well, omitting the outside wells. Media (RPMI Medium 1640 with L-glutamine, Invitrogen Corporation, Carlsbad, Calif.) was added to the blood in 90 μl aliquots for a total volume of 190 μl. Outside wells were filled with 200 μl of media. Blood was placed in a humidified 37° C. incubator with 5% CO2 while compounds were prepared (nearly 60 minutes).
(§2) Compounds were prepared from 10 mM stock solutions in dimethylsulfoxide (DMSO, Sigma-Aldrich). […] Final DMSO and ethanol concentrations in the assay were 0.1% and 1.5%. The samples were gently triturated twice to mix and replaced in the incubator. LPS stock (E. coli serotype 0111:84, Sigma-Aldrich), stored in aliquots of 100 μg/ml in RPMI at −20° C., was diluted 1/50 in RPMI to make a working stock solution. After 60 minutes of incubation, 10 μl of the prepared LPS working stock was added to the blood to a final concentration of 100 ng/ml, omitting wells to be used as negative control. The samples were again gently triturated and the plates incubated overnight for 22 hours. Following incubation, the blood was centrifuged at 1500×g for 5 minutes and the plasma removed to either freeze at −20° C. or assay for cytokine release.
(§3) IL-1β, IFNγ,IL-6, and TNFα protein levels were measured using Meso Scale assay kits (Meso Scale Discovery, Gaithersburg, Md.). Reagents were allowed to come to room temperature. Meso Scale plates were blocked with […] of human plasma/serum assay diluent with gentle shaking for 60 minutes at room temperature. Plates were washed 3× with wash buffer (PBS, Invitrogen Corporation, with 0.05% Tween-20, Sigma-Aldrich). Calibrators for standard curves were prepared in human plasma/serum assay diluent as a 1/5 serial dilution to achieve final concentrations ranging from 50000 pg/ml to 3.2 pg/ml. Samples and calibrators were added at 20 μl/well, then incubated at room temperature with gentle shaking for 90 minutes. Plates were again washed 3 times with wash buffer. Detection antibody was diluted in human plasma/serum antibody diluent to 1 μg/ml and added to the plate at 20 μl/well. Plates were incubated as before for 60 minutes and washed again. Read Buffer T (4×) was diluted 1:1 with mqH2O to 2 times concentration and 150 μl added to each well. Plates were analyzed on the SECTOR Imager 6000 (Meso Scale Discovery) to generate raw signal values.
(§4) IL-1β, IFNγ, IL-6, and TNFα sample values were verified to be within the calibrator standard curves. Individual values were compared to positive and negative controls (vehicle treated blood with LPS and vehicle treated blood without LPS, respectively) to generate % inhibition. Triplicate values were averaged for each donor. The values for two donors were averaged (only one donor was used for IL-1β) and graphed using 4-parameter fit curves in the GraFit 5.0.11 application.

Experiment [3] deals with TNFα, U937 cells. The experiment in a line: TNFα inhibition in LPS-stimulated differentiated U937 cells. Format: cell-based. Also noted: inhibition: dose or concentration left out as unconfirmed. As to conditions: Homo sapiens; for pIC50: U-937, 4 h, U937 cells, 100 ng/mL LPS, four hours, read-out: TNFα IC50. The procedure: Cells were differentiated to a monocyte/macrophage phenotype with phorbol 12-myristate 13-acetate (Sigma-Aldrich, St. Louis, Mo.), 20 ng/mL, overnight. […] Following recovery, the cells were scraped, counted, and plated in accordance to the experimental design prior to stimulation with LPS, as described below. U937 cells were differentiated and plated at a density of 200,000 cells/well in 96-well plates. […] Louis, Mo.) for four hours at 37° C. and with 5% CO2. Cell supernatants were collected for determination of TNFα levels using an in-house sandwich-type ELISA. Mouse anti-human TNFα monoclonal antibody (clone 28401.111) and biotinylated goat anti-human TNFα (R&D Systems, Minneapolis, Minn.) were used as the capture and detection antibodies, respectively. Streptavidin-horseradish peroxidase (HRP) (R&D Systems, Minneapolis, Minn.) and K-Blue Substrate/Red Stop (Neogen, Lexington, Ky.) were used as the detection system. Absorbance was measured at 650 nm. TNFα concentrations were interpolated from a human TNFα recombinant protein (R&D Systems, Minneapolis, Minn.) standard curve using a four parameter logistics model by Magellan 4.11 data analysis software (Tecan, Durham, N.C.). […] Vehicle was used to define the 0% inhibition control. Percent inhibition for each concentration of compound, relative to these controls, was calculated using Excel (Microsoft, Redmond, Wash.).

The subject of experiment [4] is IL-6, Human A549 lung epithelial cells. Description: IL-6 inhibition in IL-1β-stimulated A549 cells. It is filed as cell-based. As to conditions: for pIC50: A549, 20 h, A549 cells, 1 ng/mL IL-1β, 20 hours, read-out: IL-6 IC50; for inhibition: A549, A549 cells, Prednisolone (1 μM) = 100% inhibition control. The procedure:
Human A549 lung epithelial cells (American Type Culture Collection, Rockville, Md.) were cultured in Kaighn's F-12K medium with penicillin-streptomycin (10 U/mL) and 10% heat-inactivated fetal bovine serum (all from Invitrogen, Grand Island, N.Y.). A549 cells were plated at a density of 30,000 cells/well in 96-well plates and incubated overnight at 37° C. and with 5% CO2. The cells were serum-starved by replacing the growth medium with serum-free Kaighn's F-12K medium with penicillin-streptomycin (10 U/mL) and, again, incubating overnight at 37° C. and with 5% CO2. On the third day, the medium was replaced with fresh serum-free medium and the cells were incubated with or without compound (vehicle was DMSO at 0.1% maximum concentration) for approximately 1 hour and then stimulated with 1 ng/mL recombinant human IL-1β (R&D Systems, Minneapolis, Minn.) for 20 hours at 37° C. and with 5% CO2. Cell supernatants were collected for determination of IL-6 levels using MSD (Meso Scale Discovery, Gaithersburg, Md.) 96-well Single Spot plates as per the manufacturer's instructions. Plates were read with an MSD Sector Imager 6000. […] Vehicle was used to define the 0% inhibition control. Percent inhibition for each compound concentration, relative to these controls, was calculated using Excel (Microsoft, Redmond, Wash.). IC50 values were generated using GraFit 5.0 data analysis software (Erithacus Software Ltd., Surrey, UK).

Experiment [5] deals with IL-1β. The experiment in a line: Ex vivo LPS-stimulated human whole blood, IL-1β production. Format: cell-based. As to conditions: one donor. The procedure:
as §1, §2, §3, §4

For experiment [6], the system named is IFNγ. Description: Ex vivo LPS-stimulated human whole blood, IFNγ production. It is filed as cell-based. As to conditions: mean. On the procedure:
as §1, §2, §3, §4

Experiment [7] relates to TNFα. The experiment in a line: Ex vivo LPS-stimulated human whole blood, TNFα production. Format: cell-based. As to conditions: mean. On the procedure: as §1, §2, §3
Individual values were compared to positive and negative controls (vehicle treated blood with LPS and vehicle treated blood without LPS, respectively) to generate % inhibition. Triplicate values were averaged for each donor. The values for two donors were averaged (only one donor was used for IL-1β) and graphed using 4-parameter fit curves in the GraFit 5.0.11 application.

Experiment [8] has as its system LPS-induced serum TNFα. Description: LPS-induced serum TNFα suppression, 28-day repeat dose mouse model. It is filed as in vivo. The note with it: 672 h, mice, oral gavage 28 days.

pIC50: −log10 of the molar value. Structures can show the parent of a compound that is named as a salt. Where two headings read alike, the source gives them in different places.

As a reminder, the ED50 is the midpoint of the dose-response relation. For orientation: inhibition means the drop in the measured response relative to a control, in per cent. For orientation: pIC50 means the IC50 on a negative log10 scale, so that one unit is a factor of ten. The term IC50 denotes the concentration that gives 50% inhibition.

For `Cc1ncccc1CNC(=O)c1ccc2c(c1)CC[C@@H]1C[C@@](O)(CCC(F)(F)F)CC[C@@]21Cc1ccccc1` [Comparator A, (4βS,7S,8αR)-4β-benzyl-7-hydroxy-N-((2-methylpyridin-3-yl)methyl)-7-(3,3,3-trifluoropropyl)-4β,5,6,7,8,8α,9,10-octahydrophenanthrene-2-carboxamide], the values for the ED50 in experiment [1] and in experiment [8] were 37 mg/kg and 60 mg/kg, respectively. The inhibition at 0.00137174 µM came out at 1.46% in experiment [2] (1.371742 nM), 32% in experiment [5] (1.371742 nM), 18.1% in experiment [6] (1.371742 nM) and 18.1% in experiment [7] (1.371742 nM). Further, the inhibition at 0.00411523 µM is -4.34% in experiment [2] (4.115226 nM), 22% in experiment [5] (4.115226 nM), -1.7% in experiment [6] (4.115226 nM) and -0.861% in experiment [7] (4.115226 nM). The inhibition at 0.0123457 µM in experiment [2] (12.34568 nM) is -1.13%; in experiment [5] (12.34568 nM), 22.8%; in experiment [6] (12.34568 nM), 0.016%; in experiment [7] (12.34568 nM), 0.0309%. Besides, the inhibition at 0.037037 µM in experiment [2] (37.03704 nM) was -3.52%; in experiment [5] (37.03704 nM), 17.3%; in experiment [6] (37.03704 nM), -9.81%; in experiment [7] (37.03704 nM) it was -4.19%. The inhibition at 0.111111 µM in experiment [2] (111.1111 nM) was -3.5%; in experiment [5] (111.1111 nM) it was 8.6%; in experiment [6] (111.1111 nM), 8.74%; in experiment [7] (111.1111 nM), -3.82%. The inhibition at 0.333333 µM was -2.83% in experiment [2] (333.3333 nM), 12.2% in experiment [5] (333.3333 nM), -6.32% in experiment [6] (333.3333 nM) and -4.61% in experiment [7] (333.3333 nM). Moreover, the inhibition at 1 µM in experiment [2] (1000 nM) is -0.89%; in experiment [5] (1000 nM), 15%; in experiment [6] (1000 nM) it was 16.5%; in experiment [7] (1000 nM), -5.44%. Also, the inhibition at 3 µM was -1.97% in experiment [2] (3000 nM), 16.4% in experiment [5] (3000 nM), 28% in experiment [6] (3000 nM) and -3.04% in experiment [7] (3000 nM). Also, the inhibition in experiment [3] (U-937) stood at 35%; in experiment [4], 59.9%. In addition, the pIC50 in experiment [3] was under 6.00; in experiment [4] it was under 7.44.
Turning to `Cc1ccncc1NC(=O)c1ccc2c(c1)CC[C@@H]1C[C@@](O)(C(F)(F)F)CC[C@@]21Cc1ccccc1` [Comparator D, (4βS,7R,8αR)-4β-benzyl-7-hydroxy-N-(4-methylpyridin-3-yl)-7-(trifluoromethyl)-4β,5,6,7,8,8α,9,10-octahydrophenanthrene-2-carboxamide], the ED50 in experiment [1] is 1.18 mg/kg; in experiment [8] it was 1.47 mg/kg. The negative logarithm of the IC50 (pIC50) in experiment [4] is 8.89. Also, in experiment [4], the inhibition came to 79.8%.
Take `Cc1c(NC(=O)c2ccc3c(c2)CC[C@@H]2C[C@@](O)(C(F)(F)F)CC[C@@]32Cc2ccccc2)ccc[n+]1[O-]` [Comparator G]: the ED50 in experiment [1] is 1.12 mg/kg. For the same compound, in experiment [4], the negative-log IC50 (pIC50) is 8.68 and the inhibition turned out to be 80.1%. Further, the ED50 in experiment [8] came to 2.9 mg/kg.
The corresponding values for `Cc1ncccc1NC(=O)c1ccc2c(c1)CC[C@@H]1C[C@@](O)(C(F)F)CC[C@@]21Cc1ccccc1` [Comparator H, (4βS,7R,8αR)-4β-benzyl-7-(difluoromethyl)-7-hydroxy-N-(2-methylpyridin-3-yl)-4β,5,6,7,8,8α,9,10-octahydrophenanthrene-2-carboxamide] are 0.51 mg/kg, 8.37, 64.9% and 0.23 mg/kg.
Regarding `Cc1ncccc1NC(=O)c1ccc2c(c1)CC[C@@H]1C[C@@](O)(C(F)(F)F)CC[C@@]21Cc1ccccc1` [Example 1 HCL salt, (4βS,7R,8αR)-4β-benzyl-7-hydroxy-N-(2-methylpyridin-3-yl)-7-(trifluoromethyl)-4β,5,6,7,8,8α,9,10-octahydrophenanthrene-2-carboxamide], the inhibition in experiment [3] (U-937) is 77.1%; in experiment [4], 76.9%. Further, the pIC50 in experiment [3] was 7.04; in experiment [4], 9.40. Further, the IC50 in experiment [3] (U-937, value in brackets, footnote a: additional results that were found, read-out: TNFα IC50 (nM), additional result) worked out at 28.8 nM.
As to `Cc1ncccc1NC(=O)c1ccc2c(c1)CC[C@@H]1C[C@@](OP(=O)(O)O)(C(F)(F)F)CC[C@@]21Cc1ccccc1` [Example 2, (2R,4αS,10αR)-4α-benzyl-7-((2-methylpyridin-3-yl)carbamoyl)-2-(trifluoromethyl)-1,2,3,4,4α,9,10α-octahydrophenanthren-2-yl dihydrogen phosphate], the pIC50 in experiment [4] was 7.22.

Source of the values: patent US20120095062A1, “TRICYCLIC COMPOUNDS, COMPOSITIONS, AND METHODS” (Pfizer Inc., priority 2007, published 2012).
